From ChEMBL document CHEMBL4725243, “High-Throughput Screening for the Discovery of Enzyme Inhibitors” (J Med Chem, 2020) come the findings set out here.

Assay [1] can be described thus: Inhibition of Mycobacterium tuberculosis kanamycin resistance enzyme Eis preincubated for 10 mins followed by AcCoA addition and measured after 5 mins at interval of 30 sec for 20 mins by UV-Vis assay.
Assay [2] is described as follows: Inhibition of Mycobacterium tuberculosis kanamycin resistance enzyme Eis after 5 mins in presence of AcCoA by Ellman's reagent based assay.

Compound `Cn1c2ccc(F)cc2c2nnc(SCCN3CCCCC3)nc21` yielded an IC50 in assay [1] of 30 nM. As for `O=C(C[n+]1ccn2cccc2c1-c1ccccc1)c1ccccc1`, the IC50 in assay [2] was determined as 64 nM. The same measure, in the same setting: next, `Cc1ccc(C(=O)C[n+]2ccn3cccc3c2-c2ccc(F)cc2)cc1`: 80 nM.
